Experiments:
[1] = Solubility measured with a toluene solution (absorbance of the supernatant of a supersaturated solution); type: physicochemical; details: room temperature, from absorbance and molar extinction coefficient
Description: The solubility in toluene at room temperature can be determined from the absorbance in accordance with the Beer-Lambert law. First, a molar extinction coefficient is determined using a fullerene derivative toluene solution of a known concentration. A predetermined amount of the supernatant of a supersaturated fullerene derivative toluene solution is weighed, and the absorbance of this solution is measured. The concentration is calculated from the following equation. C=A/εd wherein C is a concentration; A is an absorbance; ε is a molar extinction coefficient; and d is a cell length for absorbance measurement (1 cm)
The solubility of each fullerene derivative was calculated from the absorbance measured with an ultraviolet-visible absorptiometer.
In advance, the absorbance of the fullerene derivatives of a predetermined concentration was measured to determine the molar extinction coefficient of each compound.
A supersaturated toluene solution of a fullerene derivative was prepared. A predetermined amount of the supernatant of this solution was taken out, and its absorbance was measured.
From the measured absorbance value and the molar extinction coefficient, the concentration of the supernatant of the supersaturated toluene solution was determined.

[2] = LUMO level estimated from cyclic voltammetry (CV); type: physicochemical; details: for E1/2^1, half-wave potential of the first reduction wave: CV, 3-electrode system, chlorobenzene:acetonitrile=5:1, n-Bu4NPF6 0.1 mol/L; for LUMO: ELUMO=−(E1/2^1+4.8) eV, from CV
Description: The LUMO level can be measured by a method according to Karakawa et al., Journal of Materials Chemistry A, 2014, vol. 2, p. 20889.
The LUMO level of the fullerene derivatives obtained in Synthesis Examples and the control compounds was estimated from the measured values in cyclic voltammetry (CV).
The measurement was performed in accordance with the experiment section in M. Karakawa et al., Journal of Material Chemistry A, 2014, vol. 2, p. 20889. • Measurement Device: BAS CV-50W Voltammetric Analyzer • Measurement Solvent: Chlorobenzene:Acetonitrile=5:1 • Supporting Electrolyte: n-Bu4NPF6 concentration 0.1 mol/L
The LUMO level is calculated from the half-wave potential E1/2^1 (Fc/Fc^+ benchmark) of the first reduction wave measured by CV (3-electrode system) using the following equation. ELUMO=−(E1/2^1+4.8)ev

| SMILES | Solubility in Toluene [1] [%] | E1/2^1, half-wave potential of the first reduction wave [2] [V vs Fc/Fc^++] | LUMO [2] [eV] |
| --- | --- | --- | --- |
| CCCCCCC1N(c2ccccc2)C(c2ccccc2)C23c4c5c6c7c8c9c(c%10c%11c2c2c%12c4c4c%13c5c5c7c7c8c8c%14c9c%10c9c%10c%11c2c2c%11c%12c4c4c%12c%13c5c5c7c7c8c8c%14c9c9c%10c2c2c%11c4c4c%12c5c7c5c8c9c2c45)C613 (stereo not drawn) [Compound 1] | 0.5 | −1.16 | −3.64 |
| CCCCC(CC)CC1N(c2ccccc2)C(c2ccccc2)C23c4c5c6c7c8c9c(c%10c%11c2c2c%12c4c4c%13c5c5c7c7c8c8c%14c9c%10c9c%10c%11c2c2c%11c%12c4c4c%12c%13c5c5c7c7c8c8c%14c9c9c%10c2c2c%11c4c4c%12c5c7c5c8c9c2c45)C613 (stereo not drawn) [Compound 2] | 1.0 | −1.17 | −3.63 |
| COCCOCCOCC1N(c2ccccc2)C(c2ccccc2)C23c4c5c6c7c8c9c(c%10c%11c2c2c%12c4c4c%13c5c5c7c7c8c8c%14c9c%10c9c%10c%11c2c2c%11c%12c4c4c%12c%13c5c5c7c7c8c8c%14c9c9c%10c2c2c%11c4c4c%12c5c7c5c8c9c2c45)C613 (stereo not drawn) [Compound 3] | 0.5 | −1.17 | −3.63 |
| CCCCOCC1N(c2ccccc2)C(c2ccccc2)C23c4c5c6c7c8c9c(c%10c%11c2c2c%12c4c4c%13c5c5c7c7c8c8c%14c9c%10c9c%10c%11c2c2c%11c%12c4c4c%12c%13c5c5c7c7c8c8c%14c9c9c%10c2c2c%11c4c4c%12c5c7c5c8c9c2c45)C613 (stereo not drawn) [Compound 4] | 0.5 | −1.17 | −3.63 |
| CCCCCCC1N(c2ccccc2)C(CC(CC)CCCC)C23c4c5c6c7c8c9c(c%10c%11c2c2c%12c4c4c%13c5c5c7c7c8c8c%14c9c%10c9c%10c%11c2c2c%11c%12c4c4c%12c%13c5c5c7c7c8c8c%14c9c9c%10c2c2c%11c4c4c%12c5c7c5c8c9c2c45)C613 (stereo not drawn) [Compound 8] | 7.0 |  |  |
| C1=CC2=c3ccc4c5ccc6c7ccc8c9ccc%10c%11c%12c%13c%14c(c3c4c3c5c6c4c7c8c(c%119)c%13c4c%143)C23C(c2ccccc2)N(c2ccccc2)CC%123C=%101 (stereo not drawn) [Control Compound 1, reference compound] | 0.3 | −1.13 | −3.67 |
| CCCCCCC1N(c2ccccc2)CC23C4=c5ccc6c7ccc8c9ccc%10c%11ccc%12c%13c(c%14c%15c2c5c6c2c7c8c5c9c%10c(c%13%11)c%14c5c%152)C13C=%12C=C4 (stereo not drawn) [Control Compound 2, reference compound] | 1.8 | −1.14 | −3.66 |
| COC(=O)CCCC1(c2ccccc2)C23c4c5c6c7c8c9c(c%10c%11c2c2c%12c4c4c%13c5c5c7c7c8c8c%14c9c%10c9c%10c%11c2c2c%11c%12c4c4c%12c%13c5c5c7c7c8c8c%14c9c9c%10c2c2c%11c4c4c%12c5c7c5c8c9c2c45)C613 (stereo not drawn) [[60]PCBM, [6,6]-phenyl-C61-butyric acid methyl ester, reference compound] |  | −1.13 | −3.67 |
